Patent US12427183B2, “Methods of treating cancer, infectious disease, and autoimmune disease using chemokines” (New York Society for the Relief of the Ruptured and …, priority 2016, dated 2025)
Entries after “also recorded” stand apart in the source; their conditions may differ.

Key:
[1] = tested on: TLR7-mediated activation of pDCs; type: cell-based, human; settings: CXCL4 10 μg/ml; TLR7 agonist at suboptimal dose; similar in HDs and SSc patients
healthy monocytes = test: Cytokines in healthy monocytes with CXCL4; type: cell-based, human
[2] = tested on: TLR8-mediated activation of SSc pDCs; test: TLR8 activation assay of pDCs from SSc patients (ORN-8L with or without CXCL4); type: cell-based, human; settings: ORN-8L 200 μg/ml + CXCL4, 24 hours
Description: (§1) PBMCs were prepared using Ficoll-Paque density gradient from fresh blood under internal Institutional Review Board-approved protocols. pDCs were isolated as previously described (Guiducci et al. 2008) using either using negative depletion (Miltenyi Biotech) or following cell sorting using a BD IFNLUX cell sorter. As part of the gating strategy, neutrophils were excluded by FSC/SSC and cells positive for CD14 (CD3 and CD19 as well) were first excluded in order to prevent the contamination by TLR8 positive cells and then positively gated on HLA-DR, CD123 and BDCA4 to purify the pDCs. All BDCA4+ cells also express BDCA2 (results not shown). As a result, pure pDCs were obtained and no markers for neutrophils (CD66) or myeloid cells were found by PCR. B cells were FACS sorted as CD19+ and monocytes as CD14+ cells. PBMCs were depleted of pDCs using BDCA4 beads from Miltenyi. pDCs were cultured at 10,000-30,000 cells per well in a 96-round bottom plate and incubated at 37° C., 5% CO2 and 95% humidity. After 24 hours of culture, the supernatant was collected for ELISA or Mutiplex cytokine assays. In some culture conditions, cells were cultured with the PI3Kδ inhibitor, CAL-101 (Selleck chemicals) for 24 hours. The RNA-based TLR8 agonist, ORN8-L previously described (Guidacci et al. 2013) was synthetized by Chemgenes Corporation. For the TLR8 activation assay, pDCs were incubated in complete media alone, 200 μg/ml ORN8-L in complete media or 200 μg/ml ORN8-L+ 10 μg/ml CXCL4 (R&D systems).
(§2) Supernatant from pDCs 24 hour culture was used for quantification of secreted chemokines and cytokines and measured with the use of an enzyme-linked immunosorbent assay (ELISA) or Luminex multiplex-beads immunoassay. CXCL4 ELISA (Ray Biotech) and IFNα, IP-10, IL-6, TNF Luminex assay (Millipore) was performed according to the manufacturer's protocol. Due to the variability in the number of cells obtained from the different patients and so we could compare the values across donors, all results were normalized to 10,000 cells. Of note, for all donors, pDCs were plated between 10,000-30,000 cells.
(§3) When purified pDCs from HDs or SSc patients were cultured with CXCL4 alone ([…]), there was no effect on IFN production.

[3] = tested on: purified pDCs from HDs or SSc patients; test: IFN production by purified pDCs cultured with chemokine alone; type: cell-based, human; parameters: IFN production, CXCL4 alone: dose or concentration left out as unconfirmed
Description: as §1, §2, §3
5×10^5 PBMCs or pDC-depleted PBMCs were cultured in 96 wells plate and stimulated with 0.25 μM CpG DNA with or without 10 μg/ml CXCL4, CXCL10, CXCL12 or CCL5. Freshly isolated pDCs were resuspended at 5×10^4 cells/100 μl RPMI 1640 medium (Gibco) and stimulated with the 0.25 μM CpG with/without 10 μg/ml indicated chemokines. The supernatant was harvested after 18 h and IFN-α was measured by ELISA.

[4] = tested on: TLR7-mediated activation of human B cells; test: TLR7-mediated activation of human B cells (R848 with or without CXCL4); type: cell-based; settings: R848 0.15 μM + CXCL4 10 μg/ml
Description: IL-6 and TNF gene levels were measured at 6 hour post culture by PCR, secretion of IL-6 and TNF were quantified using luminex and CD83 and CD80 expression was measured by flow cytometry at 24 hour post culture.

Substance: CXCL4: small chemokine of the CXC family, 70-amino acid protein released from alpha-granules of activated platelets
- TLR7 response (IFN-α) of pDCs [1]: little to no effect
- IFN-inducible IP-10 in healthy monocytes (healthy monocytes): reduces
- IL-6 in healthy monocytes (healthy monocytes): increases
- TNF in healthy monocytes (healthy monocytes): increases
- IL-6 production in response to TLR8 [2]: no effect
- TNF production in response to TLR8 [2]: no effect
- production of IFN-α in response to TLR8 ([2]; p<0.001): significantly increased
- production of IP-10 in response to TLR8 ([2]; p<0.001): significantly increased
- IFN-α secretion by pDCs, chemokine used alone ([3]; chemokine 10 μg/ml without CpG, results not shown): no effect
- IFN production, CXCL4 alone ([3]; purified pDCs from HDs or SSc patients, CXCL4 alone): no effect; also recorded: did not induce
- gene expression or secretion of IL-6 when activated by TLR7 [4]: little effect
- gene expression or secretion of TNF when activated by TLR7 [4]: little effect
